Data published in patent US20260028365A1 (BIOGEN MA INC., priority 2022, published 2026).

Molecular target: JH2 domain of human Tyk2 (Homo sapiens (Human), UniProt P29597)
Assay: JH2 Biochemical Assay (TR-FRET probe displacement)
Format: binding
Procedure: The inhibitory potency of compounds of the disclosure against the kinase activity of recombinantly generated JH2 domain of human Tyk2 was evaluated in a plate-based assay using a TR-FRET assay platform. Briefly, 2 nM of recombinant JH2 domain [10×His-tagged TYK2 JH2 domain (amino acid 575-876)] was combined with 2 nM probe ((S)-6-amino-9-(2-carboxy-4-((1-(3-(8-methyl-5-(methylamino)-8H-imidazo[4,5-d]thiazolo[5,4-b]pyridin-2-yl)phenyl)ethyl)carbamoyl)phenyl)-3-iminio-5-sulfo-3H-xanthene-4-sulfonate), 0.1 nM Tb-labeled anti-His antibody, and compounds of disclosure for 60 minutes. Compounds are tested at either 10 μM or 1 μM top concentration, 10 points of 3-fold dilution. The TR-FRET signal inversely correlates to the amount of probe displaced by compounds and signal was calculated by taking the ratio of fluorescence at 520 nm and 495 nm. The data was normalized and the percent activity versus log concentration of compound was fitted with a 4-parameter logistic model to generate IC50 curves.

[1] = JH2 domain of human Tyk2, TR-FRET probe displacement
[2] = TR-FRET probe displacement, JH2 domain of human Tyk2
[3] = TR-FRET probe displacement, JH2 domain

JH2 domain of human Tyk2, sequence (P29597 575-876): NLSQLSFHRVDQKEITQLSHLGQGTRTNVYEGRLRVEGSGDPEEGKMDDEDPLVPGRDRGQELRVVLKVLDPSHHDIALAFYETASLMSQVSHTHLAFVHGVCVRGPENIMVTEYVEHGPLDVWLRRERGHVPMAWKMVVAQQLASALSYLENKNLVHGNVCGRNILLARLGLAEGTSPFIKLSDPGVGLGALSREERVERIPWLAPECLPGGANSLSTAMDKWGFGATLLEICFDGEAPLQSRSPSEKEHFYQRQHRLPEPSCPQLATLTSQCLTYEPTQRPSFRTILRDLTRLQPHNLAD

Row | SMILES | IC50 [1] [µM] | IC50 [2] [µM] | other results
1 | CC(=O)Nc1cc(Nc2cc(C)nc(C(C)(F)F)n2)c(-c2cnc(C(C)N3CCCC3)cn2)cn1 (centres unmarked) [Example 742, N-(4-((2-(1,1-difluoroethyl)-6-methylpyrimidin-4-yl)amino)-5-(5-(1-(pyrrolidin-1-yl)ethyl)pyrazin-2-yl)pyridin-2-yl)acetamide] | ≤ 0.01 | – | –
2 | CC(=O)Nc1cc(Nc2ccnc(C(C)(F)F)n2)c(-c2csc(C(C)(C)F)n2)cn1 [Example 713, N-(4-((2-(1,1-difluoroethyl)pyrimidin-4-yl)amino)-5-(2-(2-fluoropropan-2-yl)thiazol-4-yl)pyridin-2-yl)acetamide] | ≤ 0.01 | – | –
3 | CC(=O)Nc1cc(Nc2cc(C)nc(C(C)(F)F)n2)c(OC[C@]23CC[C@](C)(CC2)CO3)cn1 [Example 347, N-(4-((2-(1,1-difluoroethyl)-6-methylpyrimidin-4-yl)amino)-5-(((1s,4s)-4-methyl-2-oxabicyclo[2.2.2]octan-1-yl)methoxy)pyridin-2-yl)acetamide] | – | ≤ 0.01 | –
4 | CC(=O)Nc1cc(Nc2cc(C)nc(C(C)(F)F)n2)c(N2CCOCC2)cn1 [Example 727, N-(4-((2-(1,1-difluoroethyl)-6-methylpyrimidin-4-yl)amino)-5-morpholinopyridin-2-yl)acetamide] | 0.1 to 1 | – | –
5 | CC(=O)Nc1cc(Nc2cc(C)nc(C(C)(F)F)n2)c(C(C)C)cn1 [Example 44, N-(4-((2-(1,1-difluoroethyl)-6-methylpyrimidin-4-yl)amino)-5-isopropylpyridin-2-yl)acetamide] | – | 0.01 to 0.1 | –
6 | COc1cc(C(F)(F)F)nc(Nc2cc(NC(C)=O)ncc2OC)n1 [Example 438, N-(5-methoxy-4-((4-methoxy-6-(trifluoromethyl)pyrimidin-2-yl)amino)pyridin-2-yl)acetamide] | 0.1 to 1 | – | –
7 | CC(=O)Nc1cc(Nc2cc(C)nc(C34COC(C3)C4)n2)c(-c2ccc(F)cn2)cn1 [Example 752, N-(4′-((2-(2-oxabicyclo[2.1.1]hexan-4-yl)-6-methylpyrimidin-4-yl)amino)-5-fluorO[2,3′-bipyridin]-6′-yl)acetamide] | – | – | IC50 [3]: ≤ 0.01 µM
8 | CCOc1cnc(NC(C)=O)cc1N(C)c1cc(C)nc(C(C)(F)F)n1 [Example 54, N-(4-((2-(1,1-difluoroethyl)-6-methylpyrimidin-4-yl)(methyl)amino)-5-ethoxypyridin-2-yl)acetamide] | – | ≥ 1 | –
9 | COc1ccc(-c2cnc(NC(C)=O)cc2Nc2cc(C)nc(C(C)(F)F)n2)nc1F [Example 622, N-(4′-((2-(1,1-difluoroethyl)-6-methylpyrimidin-4-yl)amino)-6-fluorO5-methoxy-[2,3′-bipyridin]-6′-yl)acetamide] | ≤ 0.01 | – | –
10 | CC(=O)Nc1cc(Nc2ccnc(C(C)(F)F)n2)c(-n2cc(C#N)cn2)cn1 [Example 732, N-(5-(4-cyanO1H-pyrazol-1-yl)-4-((2-(1,1-difluoroethyl)pyrimidin-4-yl)amino)pyridin-2-yl)acetamide] | 0.01 to 0.1 | – | –
11 | CC(=O)Nc1cc(Nc2cc(C)nc(C(C)(F)F)n2)c(-c2nc3c(s2)CN(CC#N)CC3)cn1 [Example 285, N-(5-(5-(cyanomethyl)-4,5,6,7-tetrahydrothiazolo[5,4-c]pyridin-2-yl)-4-((2-(1,1-difluoroethyl)-6-methylpyrimidin-4-yl)amino)pyridin-2-yl)acetamide] | – | ≤ 0.01 | –
12 | CC(=O)Nc1cc(Nc2ccnc(C(C)(F)F)c2)c(-c2cc(C)ncn2)cn1 [Example 199, N-(4-((2-(1,1-difluoroethyl)pyridin-4-yl)amino)-5-(6-methylpyrimidin-4-yl)pyridin-2-yl)acetamide] | – | 0.01 to 0.1 | –
13 | CC(=O)Nc1cc(Nc2cc(C)nc(C(C)(F)F)n2)c(-c2cc(C(C)(C)C#N)ncn2)cn1 [Example 241, N-(5-(6-(2-cyanopropan-2-yl)pyrimidin-4-yl)-4-((2-(1,1-difluoroethyl)-6-methylpyrimidin-4-yl)amino)pyridin-2-yl)acetamide] | – | 0.1 to 1 | –
14 | CC(=O)Nc1cc(Nc2cc(C)nc(C(C)(F)F)n2)c(-c2nc(CN3CCN(C)CC3)cs2)cn1 [Example 785, N-(4-((2-(1,1-difluoroethyl)-6-methylpyrimidin-4-yl)amino)-5-(4-((4-methylpiperazin-1-yl)methyl)thiazol-2-yl)pyridin-2-yl)acetamide] | – | – | IC50 [3]: ≤ 0.01 µM
15 | CC(=O)Nc1cc(Nc2ccnc(C(C)(F)F)n2)c(-c2nnc(C3CC3)o2)cn1 [Example 717, N-(5-(5-cyclopropyl-1,3,4-oxadiazol-2-yl)-4-((2-(1,1-difluoroethyl)pyrimidin-4-yl)amino)pyridin-2-yl)acetamide] | ≤ 0.01 | – | –
16 | COCCOc1cc(Nc2ccnc(NC(C)=O)c2)nc(C(C)(F)F)n1 [Example 809, N-(4-((2-(1,1-difluoroethyl)-6-(2-methoxyethoxy)pyrimidin-4-yl)amino)pyridin-2-yl)acetamide] | – | – | IC50 [3]: 0.01 to 0.1 µM

Row | SMILES | IC50 [1] [µM] | IC50 [2] [µM] | other results
17 | CC(=O)Nc1cc(Nc2ccnc(C(C)(F)F)n2)c(-n2cnc(C)n2)cn1 [Example 734, N-(4-((2-(1,1-difluoroethyl)pyrimidin-4-yl)amino)-5-(3-methyl-1H-1,2,4-triazol-1-yl)pyridin-2-yl)acetamide] | 0.1 to 1 | – | –
18 | COCCCc1cnc(NC(C)=O)cc1Nc1cc(C)nc(C(C)(F)F)n1 [Example 152, N-(4-((2-(1,1-difluoroethyl)-6-methylpyrimidin-4-yl)amino)-5-(3-methoxypropyl)pyridin-2-yl)acetamide] | – | 0.01 to 0.1 | –
19 | COc1cnc(NC(C)=O)cc1Nc1cc(-c2cc(C)c3nn(C)cc3c2)nc(C(C)(F)F)n1 [Example 400, N-(4-((2-(1,1-difluoroethyl)-6-(2,7-dimethyl-2H-indazol-5-yl)pyrimidin-4-yl)amino)-5-methoxypyridin-2-yl)acetamide] | ≤ 0.01 | – | –
20 | COc1nc(C)cc(Nc2cc(NC(C)=O)ncc2OC)n1 [Example 452, N-(5-methoxy-4-((2-methoxy-6-methylpyrimidin-4-yl)amino)pyridin-2-yl)acetamide] | 0.01 to 0.1 | – | –
21 | CC(=O)Nc1cc(Nc2cc(C)nc(C(C)(F)F)n2)c(OCc2ncsc2C)cn1 [Example 329, N-(4-((2-(1,1-difluoroethyl)-6-methylpyrimidin-4-yl)amino)-5-((5-methylthiazol-4-yl)methoxy)pyridin-2-yl)acetamide] | – | 0.01 to 0.1 | –
22 | CC(=O)Nc1cc(Nc2cc(C)nc(C(C)(F)F)n2)c(N2CCCC2)cn1 [Example 726, N-(4-((2-(1,1-difluoroethyl)-6-methylpyrimidin-4-yl)amino)-5-(pyrrolidin-1-yl)pyridin-2-yl)acetamide] | 0.01 to 0.1 | – | –
23 | CC(=O)Nc1cc(Nc2cc(C)nc(C(C)(F)F)n2)c(-c2cc(N3CCN(C)CC3)ncn2)cn1 [Example 248, N-(4-((2-(1,1-difluoroethyl)-6-methylpyrimidin-4-yl)amino)-5-(6-(4-methylpiperazin-1-yl)pyrimidin-4-yl)pyridin-2-yl)acetamide] | – | 0.01 to 0.1 | –
24 | CC(=O)Nc1cc(Nc2cc(C)nc(C(C)(F)F)n2)c(-c2nc(C)ns2)cn1 [Example 618, N-(4-((2-(1,1-difluoroethyl)-6-methylpyrimidin-4-yl)amino)-5-(3-methyl-1,2,4-thiadiazol-5-yl)pyridin-2-yl)acetamide] | ≤ 0.01 | – | –
25 | CCOc1cnc(NC(C)=O)cc1Nc1cc(C(C)(F)F)ncn1 [Example 33, N-(4-((6-(1,1-difluoroethyl)pyrimidin-4-yl)amino)-5-ethoxypyridin-2-yl)acetamide] | – | 0.1 to 1 | –
26 | CC(=O)Nc1cc(Nc2cc(C)nc(C(C)(F)F)n2)c(OCC2(C)CCOCC2)cn1 [Example 317, N-(4-((2-(1,1-difluoroethyl)-6-methylpyrimidin-4-yl)amino)-5-((4-methyltetrahydro-2H-pyran-4-yl)methoxy)pyridin-2-yl)acetamide] | – | ≤ 0.01 | –
27 | COCC12CC(c3nc(C)cc(Nc4cc(NC(C)=O)ncc4-c4ccn(C)n4)n3)(CO1)C2 [Example 561, N-(4-((2-(1-(methoxymethyl)-2-oxabicyclo[2.1.1]hexan-4-yl)-6-methylpyrimidin-4-yl)amino)-5-(1-methyl-1H-pyrazol-3-yl)pyridin-2-yl)acetamide] | 0.01 to 0.1 | – | –
28 | COc1cnc(NC(C)=O)cc1Nc1cc(-c2cc(C)c3nc(C)cn3c2)nc(C(C)(F)F)n1 [Example 403, N-(4-((2-(1,1-difluoroethyl)-6-(2,8-dimethylimidazo[1,2-a]pyridin-6-yl)pyrimidin-4-yl)amino)-5-methoxypyridin-2-yl)acetamide] | ≤ 0.01 | – | –
29 | COc1cc(C)nc(-c2cnc(NC(C)=O)cc2Nc2cc(C)nc(C(C)(F)F)n2)n1 [Example 621, N-(4-((2-(1,1-difluoroethyl)-6-methylpyrimidin-4-yl)amino)-5-(4-methoxy-6-methylpyrimidin-2-yl)pyridin-2-yl)acetamide] | 0.01 to 0.1 | – | –
30 | CCc1cc(Nc2cc(NC(C)=O)ncc2-c2noc(C)n2)nc(C(C)(F)F)n1 [Example 170, N-(4-((2-(1,1-difluoroethyl)-6-ethylpyrimidin-4-yl)amino)-5-(5-methyl-1,2,4-oxadiazol-3-yl)pyridin-2-yl)acetamide] | – | 0.01 to 0.1 | –
31 | COc1cnc(NC(C)=O)cc1Nc1cc(-c2cc(C)c3nc(C)nn3c2)nc(C(C)(F)F)n1 [Example 397, N-(4-((2-(1,1-difluoroethyl)-6-(2,8-dimethyl-[1,2,4]triazolo[1,5-a]pyridin-6-yl)pyrimidin-4-yl)amino)-5-methoxypyridin-2-yl)acetamide] | ≤ 0.01 | – | –
32 | CC(=O)Nc1cc(Nc2cccc(C(C)(F)F)n2)c(-c2ccc3c(n2)OCC(C)(C)O3)cn1 [Example 820, N-(4-((6-(1,1-difluoroethyl)pyridin-2-yl)amino)-5-(2,2-dimethyl-2,3-dihydro-[1,4]dioxino[2,3-b]pyridin-6-yl)pyridin-2-yl)acetamide] | – | – | IC50 [3]: ≤ 0.01 µM
